The test system of series [1] is SCC9 cells. The series is described as follows: MTT cell viability (cytotoxicity) assay, SCC9. The series is classed as cell-based, human. As for the experimental part: (§1) SCC cells (SCC9 and SCC4), derived from human tongue OSCC, were obtained by (ATCC® CRL-1629 and CRL-1624) and maintained in DMEM/F12 1:1 medium (Dulbecco’s modified Eagle’s medium and Ham’s F12 medium, Gibco (Thermo Fisher, Waltham, MA, USA), supplemented with 10% (v/v) FBS (Fetal Bovine Serum; Invitrogen, Thermo Fisher, Waltham, MA, USA) and 400 ng/mL hydrocortisone (Sigma-AldrichCo., St. Louis, MO, USA). Primary normal gingival fibroblast human (PCS201 018TM) and other tumor cells B16-F10 (CRL-6475), Hep G2 (HB-8065), and HT-29 (HTB-38) were also obtained at ATCC and maintained in DMEM supplemented with 10% (v/v) FCS. Cells were cultured in a humidified environment containing 5% CO2 at 37 °C. For all experiments, the compounds were solubilized in DMSO (Sigma-Aldrich) for a final concentration of 100 mM. From this dilution, other concentrations were made to carry out the cell viability assay. Carboplatin (Fauldcarbo®; Libbs Farmacêutica, São Paulo, SP, Brazil) was used as a control antitumor compound.
(§2) The viability of cancer cells and primary fibroblasts was tested using the MTT assay as described in MACHADO et al., 2021 [49]. Briefly, cancer cells (5 × 10^3 cells/well) were plated in duplicate in a 96-well plate, as indicated. DMSO was diluted in culture medium at the same concentrations and was used as a negative control, representing 100% cell viability. After 48 h of treatment, cells were incubated for 3.5 h with 5 mg/mL of MTT reagent (3,4,5-dimethiazol-2,5-diphenyltetrazoliumbromide) (Sigma-Aldrich Co., St. Louis, MO, USA) diluted in culture medium. Subsequently, the formazan crystals were dissolved by MTT solvent (50% Methanol and 50% DMSO), and the absorbance was read at 560 nm using the EPOCH microplate spectrophotometer (BioTekInstruments, Winooski, VT, USA).
(§3) IC50 values for the MTT assay were obtained by non-linear regression using GraphPad Prism 5.0 software (GraphPad, San Diego, CA, USA) from at least three independent experiments. Data are presented as means, ± standard deviation (SD). A log dose response (inhibitor) vs. response curve using the least square method was used to determine the IC50 and SD of the data. The selectivity index was calculated as: S.I. = IC50 of the compound in fibroblasts/IC50 of the same compound in tumor cells.

For series [2], the system named is Primary Gingival Fibroblast. Briefly: MTT cell viability assay, normal fibroblasts. The class given is cell-based, human. Conditions: 48 h treatment. As for the experimental part:
as §1, §2, §3
Background: Tetrazolium dyes change colour on reduction, which living cells bring about.

Series [3] relates to SCC4 cells. The series is described as follows: MTT cell viability assay, SCC4. The class given is cell-based, human. Here is the method: as §1, §2, §3
For series [4], the system named is Oral Tumor Cells (SCC9, SCC4). Briefly: MTT cell viability assay, average of OSCC lines SCC9 and SCC4. The class given is cell-based, human. Here is the method: as §1, §2
IC50 values for the MTT assay were obtained by non-linear regression using GraphPad Prism 5.0 software (GraphPad, San Diego, CA, USA) from at least three independent experiments. […] The selectivity index was calculated as: S.I. = IC50 of the compound in fibroblasts/IC50 of the same compound in tumor cells.

Series [5] deals with mouse erythrocytes. The arrangement: method as in PMID 16163826. To be noted: cited from earlier work.
[6] abbreviates: Homo sapiens, SCC-9, 48 h treatment, MTT, read-out: SCC9 IC50.
Where [7] appears, read: Homo sapiens, SCC-9, 48 h treatment, MTT, read-out: SCC9 IC50 (µg/mL).
Setting [8] is: Homo sapiens, SCC-9, 48 h treatment, MTT, N.D. = not determined, not toxic to SCC cells, read-out: SCC9 IC50 (class N.D.).
Where [9] appears, read: Homo sapiens, Fibroblast, read-out: Primary Gingival Fibroblast IC50.
Setting [10] is: Homo sapiens, Fibroblast, read-out: Primary Gingival Fibroblast IC50 (µg/mL).
The mark [11] stands for this setting: Homo sapiens, SCC-4, 48 h treatment, calculated as in Table 1, no cytotoxic effect in SCC4, read-out: SCC4 IC50 (class N.D.).

Like-named read-outs stand apart in the source and are kept apart here.

For the molecule `COc1cc(C(=O)O)cc(OC)c1OC` [3,4,5-Trimethoxybenzoic acid], in series [1], the “cytotoxic activity against SCC9 cells (in words)” value (shortened to “cytotoxic activity”) was “inactive”. In series [1] (Homo sapiens, SCC-9, 48 h, read-out: SCC9 IC50 (class N.D.)), the IC50 was greater than 1000 µM.
Consider `N.N.O=C([O-])C1(C(=O)[O-])CCC1.[Pt+2]` [Carboplatin, reference compound], for which the “SCC9 IC50” value in series [1] (48 h treatment, MTT) is on record as 77.37 µg/mL. In addition, the IC50 in series [1] (48 h treatment, MTT, read-out: SCC9 IC50) was 208 µM; in series [2] (read-out: Primary Gingival Fibroblast IC50) it was 512 µM; in series [3] (48 h treatment, read-out: SCC4 IC50) it was 175 µM; in series [4], 192 µM. In series [2], the “Primary Gingival Fibroblast IC50” value turned out to be 190.19 µg/mL.
For `COC(=O)c1cc(OC)c(OC)c(OC)c1` [Compound 1, Methyl 3,4,5–trimethoxybenzoate], the IC50 in series [1] (setting [6]) came to 858 µM; in series [1] (setting [7]) it was 194 µg/mL.
A word on the melting point: it is the temperature, or range, at which the solid turns liquid. `CCOC(=O)c1cc(OC)c(OC)c(OC)c1` [Compound 2, Ethyl 3,4,5–trimethoxybenzoate]: the melting point lay in the range of 53 to 54 °C. In addition, the “cytotoxic activity” value in series [1] is recorded as “no cytotoxic activity”. The IC50 in series [1] (setting [8]) is greater than 1000 µM.
`CCCOC(=O)c1cc(OC)c(OC)c(OC)c1` [Compound 3, Propyl 3,4,5–trimethoxybenzoate] displayed a melting point of 34 to 35 °C. Also, the IC50 in series [1] (setting [6]) came out at 299 µM. Moreover, the IC50 in series [1] (setting [7]) is 76 µg/mL. For the same molecule, in series [2] (setting [9]), the IC50 was found to be 1260 µM. The IC50 in series [2] (setting [10]) came to 319 µg/mL. Moreover, in series [3] (setting [11]), the IC50 was greater than 1000 µM.
Turning to `COc1cc(C(=O)OC(C)C)cc(OC)c1OC` [Compound 4, Isopropyl 3,4,5–trimethoxybenzoate], the IC50 in series [1] (setting [6]) is 373 µM; in series [1] (setting [7]), 94.9 µg/mL; in series [2] (setting [9]), 1800 µM; in series [2] (setting [10]), 456 µg/mL; in series [3] (Homo sapiens, SCC-4, 48 h treatment, read-out: SCC4 IC50), 454 µM; in series [4] (Homo sapiens), 376 µM.
For the molecule `CCCCOC(=O)c1cc(OC)c(OC)c(OC)c1` [Compound 5, Butyl 3,4,5–trimethoxybenzoate], the IC50 in series [1] (setting [6]) came to 204 µM; in series [1] (setting [7]) it was 54.8 µg/mL; in series [2] (setting [9]), 510 µM; in series [2] (setting [10]) it was 137 µg/mL.
In the same order, the values of `COc1cc(C(=O)OCCC(C)C)cc(OC)c1OC` [Compound 6, Isopentyl 3,4,5–trimethoxybenzoate] are 160 µM, 45.2 µg/mL, 570 µM and 161 µg/mL.
The matching figures for `CCCCCOC(=O)c1cc(OC)c(OC)c(OC)c1` [Compound 7, Pentyl 3,4,5–trimethoxybenzoate]: 258 µM, 72.7 µg/mL, 418 µM and 118 µg/mL.
Consider `CCCCCCCCCCOC(=O)c1cc(OC)c(OC)c(OC)c1` [Compound 8, Decyl 3,4,5–trimethoxybenzoate], for which the melting point was 49 to 50 °C. Further, the IC50 in series [1] (setting [6]) worked out at 955 µM. In addition, the IC50 in series [1] (setting [7]) is 337 µg/mL.
`COc1cc(C(=O)OCc2ccc(Br)cc2)cc(OC)c1OC` [Compound 10, 4-Bromo-benzyl 3,4,5–trimethoxybenzoate] showed a melting point of 104 to 105 °C. Also, the “cytotoxic activity” value in series [1] was “no cytotoxic activity”. Moreover, the IC50 in series [1] (setting [8]) was greater than 1000 µM.
`COc1cc(C(=O)OCc2ccc3ccccc3c2)cc(OC)c1OC` [Compound 11, 2-Methylnaphthalene 3,4,5–trimethoxybenzoate] showed a melting point of 84 to 85 °C. Moreover, the IC50 in series [1] (setting [6]) worked out at 310 µM. Further, the IC50 in series [1] (setting [7]) came out at 109 µg/mL. For the same molecule, in series [2] (setting [9]), the IC50 came out at 3410 µM. The IC50 in series [2] (setting [10]) was 1200 µg/mL.
As to `COc1cc(C(=O)OC(c2ccccc2)c2ccccc2)cc(OC)c1OC` [Compound 12, Diphenyl 3,4,5–trimethoxybenzoate], the melting point was 57 to 58 °C. Also, the IC50 in series [1] (setting [6]) is 830 µM. Besides, the IC50 in series [1] (setting [7]) came to 314 µg/mL.
As to `CCCCNC(=O)c1cc(OC)c(OC)c(OC)c1` [Compound 13, N-Butyl-3,4,5–trimethoxybenzamide], the melting point lay in the range of 115 to 116 °C. For the same molecule, in series [1] (setting [6]), the IC50 was 469 µM. For the same molecule, the IC50 in series [1] (setting [7]) came to 125 µg/mL. In addition, in series [2] (setting [9]), the IC50 amounted to 2360 µM. In addition, the IC50 in series [2] (setting [10]) was 631 µg/mL. In series [3] (setting [11]), the IC50 is greater than 1000 µM.
`COc1cc(C(=O)NCC(C)C)cc(OC)c1OC` [Compound 14, N-Isobutyl-3,4,5–trimethoxybenzamide] registered a melting point of 118 to 119 °C. For the same molecule, the IC50 in series [1] (setting [8]) was greater than 1000 µM.
The matching figures for `COc1cc(C(=O)NC2CCCCC2)cc(OC)c1OC` [Compound 15, N-Cyclohexyl-3,4,5–trimethoxybenzamide]: 179 to 180 °C and greater than 1000 µM.
Turning to `COc1cc(C(=O)NCc2ccc(O)cc2)cc(OC)c1OC` [Compound 16, N-4-Hydroxybenzyl-3,4,5–trimethoxybenzamide], the melting point lay within 227 to 229 °C. The IC50 in series [1] (setting [8]) was greater than 1000 µM.
`COc1cc(C(=O)NCc2ccccc2)cc(OC)c1OC` [Compound 17, N-Benzyl-3,4,5–trimethoxybenzamide]: the melting point is 138 to 139 °C. For the same molecule, the IC50 in series [1] (setting [8]) is greater than 1000 µM.
The molecule `COc1cc(C(=O)NCc2ccc(F)cc2)cc(OC)c1OC` [Compound 18, N-(4-Fluorobenzyl)-3,4,5–trimethoxybenzamide] had a melting point of 131 to 132 °C. In series [1], the “cytotoxic activity” value is “inactive”. Moreover, the IC50 in series [1] (setting [8]) is greater than 1000 µM.
`COc1cc(C(=O)NCc2ccc(Cl)cc2)cc(OC)c1OC` [Compound 19, N-4-Chlorobenzyl-3,4,5–trimethoxybenzamide] yielded a melting point of 157 to 158 °C. Further, in series [1] (setting [8]), the IC50 is greater than 1000 µM.
Regarding `COc1cc(/C=C/C(=O)N2CCC=CC2=O)cc(OC)c1OC` [piplartine], the hemolytic activity entry in series [5] is given as “did not reveal hemolytic activity”.

The record behind these values is paper PMC9964404, “Molecular Modeling and In Vitro Evaluation of Piplartine Analogs against Oral Squamous Cell Carcinoma” (Molecules, 2023).
